This assay concerns Human primary myoblasts. The experiment in a line: Myogenic amplification and commitment of muscle stem cells (Pax7/MyoD staining, image quantification). It is filed as cell-based. As to conditions: donors 1 and 2 pooled, dose response, 96 hours, normalized to total cell number, control DMSO 1%; for proportion of MyoD+ cells (differentiating), fold change compared to the control condition: FIG. 1B/2B. On the procedure:
Human Skeletal Muscle Myoblasts were purchased from Lonza (https://bioscience.lonza.com). These cells were isolated from the upper arm or leg muscle tissue of normal donors and used after the second passage. Several donors were tested to ensure cell viability and purity before selecting the final donors, which are a person (refer thereafter as Donor 1), a person (refer thereafter as Donor 2) and a person (refer thereafter as Donor 3). Human primary myoblasts were seeded in 384 well plates at a density of 1′000 cells per well in skeletal muscle growth medium (SKM-M, AMSbio). For treatment, compounds were directly added to the myoblast cultures 16 hours after initial plating. All cultures were then grown for 96 hours. Cells were stained for Pax7 and MyoD expression using antibodies directed against Pax7 and MyoD and counterstained with Hoechst 33342 to visualize cell nuclei. Pax7+ cells are defined as cells that express Pax7 regardless of MyoD expression. […] Image acquisition was performed using the ImageXpress (Molecular Devices) platform. Custom module analysis based on Multi-Wavelength Cell Scoring of the MetaXpress software was used for quantification. *, **, ***, **** indicates difference from the control, One-way ANOVA, with p<0.05, p<0.01, p<0.001, p<0.0001, respectively. Data are presented as Mean+/−SEM. Human primary myoblasts from different donors (donor 1, donor 2 or donor 3) were seeded in 384 well plates at a density of 1′000 cells per well in skeletal muscle growth medium (SKM-M, AMSbio). For treatment, compounds were directly added to the myoblast cultures 16 hours after initial plating. All cultures were then grown for 96 hours. Cells were stained for Pax7 and MyoD expression using antibodies directed against Pax7 and MyoD and counterstained with Hoechst 33342 to visualize cell nuclei. Pax7+ cells are defined as cells that express Pax7 regardless of MyoD expression. […] Image acquisition was performed using the ImageXpress (Molecular Devices) platform. Custom module analysis based on Multi-Wavelength Cell Scoring of the MetaXpress software was used for quantification. […]

Regarding `NC(=O)c1cccnc1` [Nicotinamide], the “proportion of MyoD+ cells (differentiating), fold change compared to the control condition” value was “increasing the proportion of both amplifying (Pax7+) and differentiating (MyoD+) cells in a dose dependent manner”. Further, the “proportion of Pax7+ cells (amplifying), fold change compared to the control condition” value (FIG. 1A/2A) was “increasing the proportion of both amplifying (Pax7+) and differentiating (MyoD+) cells in a dose dependent manner”.

Consider `Cc1ncc(CO)c(CO)c1O` [Pyridoxine], for which the “proportion of MyoD+ cells (differentiating), fold change compared to the control condition” value was “increasing the proportion of differentiating (MyoD+) cells in a dose dependent manner”.

Values taken from patent US12661343B2, “Compositions containing nicotinamide and vitamin B6 and methods of using such compositions for promoting muscle growth” (SOCIETE DES PRODUITS NESTLE S.A., priority 2020, dated 2026).
